Where no end group is shown, it is not given here.

We go through one substance from patent publication US20140328933A1, “NOVEL FORMULATIONS AND METHODS” (priority 2010, published 2014).

This experiment has as its system Angiogenesis in the CAM Model. Description: Chorioallantoic Membrane Angiogenesis (CAM) Model, branch points formation. Format: in vivo. From the text: VIP in Chorioallantoic Membrane Angiogenesis (CAM) Model
FIG. 15 depicts the results of testing regarding Nanoparticle encapsulates.

For “Vasoactive intestinal peptide (HSDAVFTDNYTRLRKQMAVKKYLNSILN-NH2) [VIP, peptide hormone containing 28 amino acid residues]”, the “Total # of branches [VIP (1 ng/CAM) - PBS(average)], Mean” value (VIP 1 ng/CAM, PBS average subtracted) worked out at 34.8. Further, where the note is “VIP 10 ng/CAM, PBS average subtracted”, the “Total # of branches [VIP (10 ng/CAM) - PBS(average)], Mean” value is recorded as 53.6. The “number of branches, Mean” value (VIP 0.1 ug/ml, 1 ng/CAM) was found to be 84.8; the “number of branches, Mean” value (VIP 1 ug/ml, 10 ng/CAM) worked out at 103.6; the “number of branches, Mean” value (VIP 10 ug/ml, 100 ng/CAM) is recorded as 121.7. Besides, the “Total # of branches [VIP (100 ng/CAM) - PBS(average)], Mean” value (VIP 100 ng/CAM, PBS average subtracted) was determined as 71.7.
